pIC50: −log10 of the molar value.

In the experiment the test system is P. falciparum 3D7 growth, pLDH absorbance. As to the kind of experiment: blood-stage malaria parasite growth potency – strain 3D7, dose response (AID 2305).
The pIC50 is the IC50 on a negative log10 scale, so that one unit is a factor of ten. A lower pIC50 goes with a high IC50. Take `COC(=O)c1cccc(CNCc2ccc(-c3ccc(-c4nc5c(C)cccc5[nH]4)cc3)cc2)c1`: the pIC50 is 6.55.

As for `C=CCOc1ccccc1CNCC(O)c1cc(Br)cs1` (stereo unspecified), the pIC50 was 6.48. In turn, `CCC[C@@H]([C@@H](CC1CCCCC1)C(=O)N[C@@H](CCCCNS(C)(=O)=O)C(=O)Nc1nccs1)N(O)C=O` showed a pIC50 of 7.10. `CC1(C)CCC(=Cc2ccc(Cl)cc2)CC1(O)Cn1ccnc1` (stereo unspecified) had a pIC50 of 6.13. For `CN(C)CCCNc1ccnc2cc(Cl)ccc12` the value was 6.55.

The molecule `COC(=O)Cc1ccc(N)c2ccccc12` had a pIC50 of 6.15. This pIC50 is 0.40 log units lower than that of the molecule before. To `CCCN1CCCN(Cc2cccc(NC(=O)c3ccc(-c4ccccc4)cc3)c2)CC1` belongs 5.95. For `O=C(COc1ccccc1)N(Cc1ccc(-c2ccc(CNC3Cc4ccccc4C3)cc2)cc1)C1CCNCC1`, the pIC50 was 5.99. `CN1CCN(c2cccc(-c3nnc(-c4cccc(OCC(=O)NCc5ccc(C(F)(F)F)cc5)c4)o3)c2)CC1`: the pIC50 was 6.12. To `CCCCC(=O)NC(c1cccs1)c1cc(Cl)c2cccnc2c1O` (stereo unspecified) belongs 6.42; to `COc1ccc2c(C)cc(NCCCN(C)C)nc2c1`, 5.96. `COc1ccccc1C1CCN(C2CCC(NC(=O)/C=C/c3cccc(Cl)c3F)CC2)CC1` (stereo unspecified) had a pIC50 of 5.89. As to `COc1ccc2ccccc2c1C=NNc1cc(C)nc2c(C)cccc12`, the pIC50 was 6.09. Against the preceding molecule, the pIC50 is 0.20 log units higher. To `N#Cc1ccc(-c2ccc(C(=O)NCCCCN3CCC(c4ccc5c(c4OCC(N)=O)CCCC5)CC3)nc2)cc1` belongs 6.14; to `CN(c1cc(NC(=O)c2ccc(F)cc2)ccn1)C1CCN(Cc2ccc(C#N)cc2)CC1`, 5.82; to `COc1ccc(NC(=O)[C@H](Cc2ccccc2)Nc2cc(C)nc(NCCc3cccnc3)n2)cc1`, 6.12. To `O=C(NCCc1ccc(Cl)c(Cl)c1)[C@@H]1CCCN1C(=O)c1ccc(O)c(-c2cccc(C(F)(F)F)c2)c1` belongs 6.09. The molecule `CCCC1N=C(N)N=C(N)N1c1ccccc1` (stereo unspecified) had a pIC50 of 6.09.

For the molecule `CSc1ccc(NC(=O)Nc2cc(C)nc3ccccc23)cc1Br`, the negative logarithm of the IC50 (pIC50) was 6.11. This pIC50 and that of the molecule before are within 0.2 log units of each other.

The molecule `COc1cc(C2=NN(S(=O)(=O)c3c(C)cc(C)cc3C)CCCC2)ccc1Cl` had a pIC50 of 6.11. To `CS(=O)(=O)CCNCc1ccc(-c2ccc3c(Nc4ccc(F)cc4Cl)ccnc3c2)o1` belongs 6.13; to `CC(C)Oc1cccc(-c2ccc(C(=O)NCC3CCCN(Cc4cccc(C(F)(F)F)c4)C3)s2)c1` (stereo unspecified), 5.97. For `CN1CCC(Oc2ccc(CN3CC[C@H](NC(=O)c4ccc(F)c(F)c4)C3)c3ccccc23)C1` (stereo partly specified) the value was 5.97; for `COc1cc2c(cc1S(=O)(=O)c1ccc(NC(=O)c3ccc4ccccc4c3)cc1)CCN(C)CC2`, 6.10; for `Cc1cccc(C)c1N1CCN(C2CCC(NC(=O)/C=C/c3ccccc3)CC2)CC1` (stereo unspecified), 5.93.

Regarding `Cc1c(C)n(C2CCCCC2)c2ncnc(OC3CCN(CC(=O)N4CCCC4)CC3)c12`, the pIC50 was 5.84.

The molecule `Nc1nc(N)c2c3c(cnc2n1)CCCC3` showed a pIC50 of 6.11. On to `COc1ccc(C=C2SC(=O)NC2=Nc2ccccc2)c(OC)c1`, for which the pIC50 was 6.33. To `CCCC(CC)n1ccc2c3c(N)nc(N)nc3ccc21` (stereo unspecified) belongs 8.00; to `OCC1CCN(Cc2ccc(-c3ccc(-c4nc5ccccc5[nH]4)cc3)cc2)CC1`, 6.05. To `CCNc1cc(C(=O)N[C@@H](Cc2ccccc2)[C@H](O)CNC(C)(C)Cc2cccc(OC)c2)cc(N2CCCC2=O)c1` belongs 6.15. `O=C(/C=C/c1ccc(Cl)cc1)NCCCCCN1CCCN(C(=O)Nc2ccc(Cl)c(C(F)(F)F)c2)CC1` had a pIC50 of 6.04. For `Cc1[nH]c(C)c(-c2ccc(OCCCCSc3ccncc3)cc2)c(=O)c1Br` the value was 6.60; for `CC(C)c1cc2c(ccc3nc(N)nc(N)c32)o1`, 7.05.

`O=C(/C=C/c1ccc([N+](=O)[O-])cc1)N1CCC(NS(=O)(=O)c2cccc(C(F)(F)F)c2)CC1` gave a negative-log IC50 (pIC50) of 6.07.

Consider `COc1ccc(F)cc1-c1ccc(C(=O)N2CCCN(c3ccc(C(F)(F)F)cn3)CC2)cc1`, for which the pIC50 was 6.80. To `Cc1nn(CC(O)Cn2c3ccc(Br)cc3c3cc(Br)ccc32)c(C)c1Br` (stereo unspecified) belongs 6.15; to `COc1ccc2nccc([C@@H](O)CN3CCC(NCc4cc5c(Cl)cccc5[nH]4)CC3)c2c1`, 6.80. The molecule `CC(C)COc1ccc(Cl)cc1Cc1ccc(-c2nc3ccc(C(F)(F)F)cc3[nH]2)o1` had a pIC50 of 6.07. For `O=C(Nc1cccc(-c2nn3ccccc3c2-c2ccnc(Nc3ccc(Cc4ccncc4)cc3)n2)c1)c1c(F)cccc1F` the value was 6.52; for `CCN(CC)C(=NC(N)=NCCCCCCN=C(N)N=C(Nc1ccc(Cl)cc1)N(CC)CC)Nc1ccc(Cl)cc1`, 6.03. In turn, `CC(C)(C)CCOC(=O)N1CCc2c(cc(O)c(O)c2Cl)C(c2ccc(O)cc2)C1` (stereo unspecified) gave a pIC50 of 6.12. To `COC(=O)c1cccc(CNCc2ccc(-c3ccc(-c4nc5ccccc5[nH]4)s3)cc2)c1` belongs 6.54; to `CN(C)Cc1ccc(-c2ccc3c(Nc4ccc(Oc5ccccc5)cc4)ccnc3c2)o1`, 6.10; to `Cc1cc(N(C)C)nc(Nc2ccc(NC(=O)C(C)Oc3ccccc3)cc2)n1` (stereo unspecified), 6.02. To `Cn1cncc1-c1ccc2ncnc(Nc3ccc4c(cnn4Cc4ccccc4)c3)c2c1` belongs 6.74. To `N#CCCN1CCN(Cc2cccc(-c3ccc(-c4nc5ccc(C(F)(F)F)cc5[nH]4)cc3)c2)CC1` belongs 6.13. On to `Cc1ccc(-c2ccc3c(c2)C=C(C(=O)NC2CCN(CCNC(=O)c4cccc(C(F)(F)F)c4)CC2)CCC3)cc1`, for which the pIC50 is 6.29.

The molecule `CCc1ccc(C2CCN(CCCCNC(=O)c3ccc(NC(=O)c4ccc(Cl)cc4)cc3)CC2)c(OCC(=O)OC)c1` gave a pIC50 of 5.99. Consider `COc1cc(C(=O)N2CCOC(CCN3CCC(Cc4ccc(F)cc4)CC3)(c3ccc(Cl)c(Cl)c3)C2)cc(OC)c1OC` (stereo unspecified), for which the pIC50 was 6.05. Take `Cc1cccc2[nH]c(-c3ccc(-c4ccc(CN5CCN(CC6CCCN(C)C6)CC5)cc4)cc3)nc12` (stereo unspecified): the pIC50 is 6.85. Against the preceding molecule, the pIC50 is 0.80 log units higher. For `CCOC(=O)c1ccc(NC(=O)Nc2cccc(-c3ccc(-c4nc5ccc(F)cc5[nH]4)cc3)c2)cc1` the value was 7.05. For `CN(c1ccnc(Nc2ccc(CS(C)(=O)=O)cc2)n1)C1CCN(Cc2ccccc2)CC1` the value was 5.85; for `COCCCNC(=O)c1ccc(O)c(-c2cc(Cl)cc(Cl)c2)c1`, 6.04. With `Cc1cccc2[nH]c(-c3ccc(-c4cccc(CNCCCNS(C)(=O)=O)c4)cc3)nc12`, the negative logarithm of the IC50 (pIC50) was 5.91. As to `CC(C)[C@H]1C(=O)N(S(C)(=O)=O)[C@H]2CCN(C(=O)c3ccc(CN4CCCCC4)c([N+](=O)[O-])c3)[C@H]12`, the pIC50 is 6.21. To `c1ccc(C(OCCC2CCN(Cc3cccc4cccnc34)CC2)c2ccccc2)cc1` belongs 6.06; to `O=C(/C=C/c1ccc(-c2nc3ccc(Cl)cc3[nH]2)cc1)NCc1cccc(F)c1`, 6.19. Molecule `CCn1c(SCc2ccccc2)nc2c1c(=O)[nH]c(=O)n2C` had a pIC50 of 6.62. For `Cc1cccc(-c2ccc(CNC3CCN(CC4Cn5c(=O)ccc6ccc(F)c4c65)CC3)cn2)c1` (stereo unspecified) the value was 5.82. As to `Cc1cc(N[C@@H](Cc2ccccc2)C(=O)NCc2cccc(F)c2)nc(NCC2CCCCC2)n1`, the negative logarithm of the IC50 (pIC50) is 6.07. The molecule `CCc1nnc2sc(-c3cccc(NC(=O)c4ccc(C)c([N+](=O)[O-])c4)c3)nn12` had a pIC50 of 5.85. This pIC50 is 0.22 log units lower than that of the molecule before. `CN1CCC(C(=O)Nc2ccc(-c3ccc(-c4nc5ccccc5[nH]4)cc3)cc2)CC1` had a pIC50 of 6.01.

The molecule `O=C(Nc1cccc(-c2ccc(-c3nc4ccc(C(F)(F)F)cc4[nH]3)cc2)c1)c1cccnc1` showed a pIC50 of 6.24.

For the molecule `COc1cc(F)c2ncc(Cl)c(C(O)CN3CCC(NC(=O)c4ccc5c(n4)NC(=O)CO5)CC3)c2c1` (stereo unspecified), the pIC50 is 6.12. To `Cc1ccc2[nH]c3ccccc3c(=O)c2c1` belongs 6.07.

Molecule `Cc1cc(NCC(c2ccccc2)c2ccccc2)nc(NCc2ccc(C(F)(F)F)cc2)n1` showed a negative logarithm of the IC50 (pIC50) of 6.60. `COc1ccc(CC(C)NCC(O)c2cccc(Cl)c2F)cc1` (stereo unspecified): the pIC50 is 5.97. Molecule `COc1cccc2cc(C(=O)N[C@@H](CC(C)C)C(=O)N[C@H](/C=N/NC(=O)N3CCN(C)CC3)CCc3ccccc3)oc12` showed a pIC50 of 6.21. For `CNC(=O)Cc1ccc(C(=O)Nc2cccc(-c3cccc(-c4nc5ccc(C(F)(F)F)cc5[nH]4)c3)c2)cc1` the value was 6.36.

In turn, `CCCCC(O)c1cc(O)c2c(c1)OC(C)(C)CC2C1=CCN(Cc2ccc3ccccc3c2)CC1` (stereo unspecified) showed a pIC50 of 6.01. For `COC(=O)c1ccc2c(-c3nc4ccc(OC)cc4[nH]3)c[nH]c2c1` the value was 6.06.

Molecule `O=C(/C=C/c1ccc(Cl)c(Cl)c1)NCCCCCN1CCCN(C(=O)Nc2ccc(Cl)cc2)CC1` showed a pIC50 of 6.13. For `Oc1ccc(CCNCCCCCCNCCc2ccc(Cl)c(Cl)c2)cc1O` the value was 6.14. In turn, `O=C(Nc1cccc(-c2cccc(-c3nc4ccc(C(F)(F)F)cc4[nH]3)c2)c1)c1csnn1` showed a pIC50 of 6.62. Regarding `N=C(N)c1cc(Cl)cc(NC(=O)Nc2cc(Cl)cc(C(=N)N)c2)c1`, the pIC50 is 6.14. On to `CCC(C)c1cnc2nc(N)nc(N)c2c1C` (stereo unspecified), for which the negative-log IC50 (pIC50) was 6.36. For `COc1cccc(OC)c1CN1CCC(N(C)CCCCCCCCCN2CCC(OC(=O)Nc3ccccc3-c3ccccc3)CC2)CC1` the value was 6.49; for `CN1CCC(c2c[nH]c3ccc(NC(=O)Nc4ccc(-c5ccncc5)c(Cl)c4Cl)cc23)CC1`, 6.15. Take `CS(=O)(=O)Nc1cccc(-c2cnc3[nH]cc(-c4cccc(CN)c4)c3c2)c1`: the pIC50 was 5.78. Take `CS(=O)(=O)c1ccc(CNCc2cccc(-c3cccc(-c4nc5ccc(C(F)(F)F)cc5[nH]4)c3)c2)cc1`: the pIC50 is 6.74.

As for `Oc1ccc(Cc2ccccc2)cc1CNC1CCCCC1`, the pIC50 was 6.72. The pIC50 values of the last two molecules are within 0.2 log units of each other. In turn, `COc1ccc(-c2nc(NC(=O)CSc3ccccc3)sc2C)cc1` had a pIC50 of 6.12. For the molecule `Cc1ccc(NC(=O)NC2CCN(CCCCCNC(=O)[C@@H]3C[C@H]3c3ccc(Cl)c(Cl)c3)CC2)cc1`, the pIC50 is 6.27. The pIC50 values of the last two molecules are within 0.2 log units of each other. For `CC(C)Cn1c(Sc2ccc(C#N)c([N+](=O)[O-])c2)nnc1-c1ccccc1` the value was 5.96.

In turn, `Cc1ncccc1-c1cccc2c(NC(=O)Nc3ccc4nccc(N5CCN(C)CC5)c4c3)cccc12` gave a pIC50 of 6.20. Against the preceding molecule, the pIC50 is 0.24 log units higher.

These data come from PubChem BioAssay AID2305 (GlaxoSmithKline (GSK), 2010).
